How the values were obtained:
FKBP12 [1] = target: T1, FKBP12 (Homo sapiens, UniProt P62942); experiment: Binding affinity of ligands with large RA (E3-ligase CRBN, PEG linker); settings: * = detection limit
Description: (§1) Further example of a diazabicyclo[4.3.1]decane with a large, bulky substituent in RA. The n corresponds to a varying PEG-linker length of 1-5. All tested ligands with a S-methyl group display increased binding affinity to the tested FKBPs while all R-isomers display decreased binding affinity as shown in the table below. In all cases, the addition of the methyl group in S-configuration increases the affinity to all measured FKBPs substantially.

FKBP12.6 [2] = target: T2, FKBP12.6 (Homo sapiens, UniProt P68106); experiment: as above; settings: * = detection limit
T2 sequence (P68106 whole entry): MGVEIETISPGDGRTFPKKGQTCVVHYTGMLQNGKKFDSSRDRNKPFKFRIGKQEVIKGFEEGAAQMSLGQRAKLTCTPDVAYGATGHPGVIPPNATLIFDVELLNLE
Description: as §1

FKBP51FK1 = target: T3, FKBP51FK1 (Homo sapiens, UniProt Q13451); experiment: as above
T3 construct: FKBP51FK1
T3 sequence (Q13451 42-130 limits assumed): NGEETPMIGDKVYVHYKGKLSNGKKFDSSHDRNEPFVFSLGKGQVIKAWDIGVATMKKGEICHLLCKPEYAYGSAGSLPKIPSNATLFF
Description: as §1

FKBP52FK1 = target: T4, FKBP52FK1 (Homo sapiens, UniProt Q02790); experiment: as above
T4 construct: FKBP52FK1
T4 sequence (Q02790 50-138 limits assumed): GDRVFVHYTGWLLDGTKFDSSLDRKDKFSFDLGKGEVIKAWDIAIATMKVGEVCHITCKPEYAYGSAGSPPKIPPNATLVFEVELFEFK
Description: as §1

FKBP12 [3] = target: T1, FKBP12; experiment: FP assay, binding to human FKBPs (Table 1); settings: fluorescence polarization assay
FKBP12.6 [4] = target: T2, FKBP12.6; experiment: FP assay, binding to human FKBPs (Table 1); settings: fluorescence polarization assay
FKBP51 = target: T5, FKBP51 (Homo sapiens, UniProt Q13451); experiment: FP assay, binding to human FKBPs (Table 1); settings: fluorescence polarization assay
T5 sequence (Q13451 1-457): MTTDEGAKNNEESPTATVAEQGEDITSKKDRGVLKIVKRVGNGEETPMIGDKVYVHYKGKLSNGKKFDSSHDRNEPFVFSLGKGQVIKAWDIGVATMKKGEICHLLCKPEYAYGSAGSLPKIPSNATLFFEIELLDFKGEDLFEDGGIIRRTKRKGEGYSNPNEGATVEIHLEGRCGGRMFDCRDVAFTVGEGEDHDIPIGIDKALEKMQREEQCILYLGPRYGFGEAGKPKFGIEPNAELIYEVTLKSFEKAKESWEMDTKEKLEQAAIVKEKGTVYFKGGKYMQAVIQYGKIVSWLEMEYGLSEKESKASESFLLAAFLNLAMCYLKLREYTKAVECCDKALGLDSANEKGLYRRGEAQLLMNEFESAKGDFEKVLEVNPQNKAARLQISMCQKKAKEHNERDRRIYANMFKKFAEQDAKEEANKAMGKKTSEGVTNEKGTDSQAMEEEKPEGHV

FKBP52 = target: T6, FKBP52 (Homo sapiens, UniProt Q02790); experiment: FP assay, binding to human FKBPs (Table 1); settings: fluorescence polarization assay
T6 sequence (Q02790 1-459): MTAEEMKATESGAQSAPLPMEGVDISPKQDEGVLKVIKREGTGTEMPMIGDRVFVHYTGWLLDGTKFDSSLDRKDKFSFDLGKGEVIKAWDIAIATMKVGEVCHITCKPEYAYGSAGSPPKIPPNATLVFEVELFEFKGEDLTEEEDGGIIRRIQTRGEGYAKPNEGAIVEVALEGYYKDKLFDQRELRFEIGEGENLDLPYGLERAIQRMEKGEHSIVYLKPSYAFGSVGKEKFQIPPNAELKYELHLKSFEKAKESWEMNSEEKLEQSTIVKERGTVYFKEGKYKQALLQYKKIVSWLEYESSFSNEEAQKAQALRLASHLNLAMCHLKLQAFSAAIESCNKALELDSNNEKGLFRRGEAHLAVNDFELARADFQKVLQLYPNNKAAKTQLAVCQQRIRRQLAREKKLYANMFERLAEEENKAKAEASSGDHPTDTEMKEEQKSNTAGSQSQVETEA

LpMip = LpMip (Legionella pneumophila subsp. pneumophila, UniProt Q5ZXE0); experiment: biochemical; type: binding
Sequence of LpMip (Q5ZXE0 21-233 limits assumed): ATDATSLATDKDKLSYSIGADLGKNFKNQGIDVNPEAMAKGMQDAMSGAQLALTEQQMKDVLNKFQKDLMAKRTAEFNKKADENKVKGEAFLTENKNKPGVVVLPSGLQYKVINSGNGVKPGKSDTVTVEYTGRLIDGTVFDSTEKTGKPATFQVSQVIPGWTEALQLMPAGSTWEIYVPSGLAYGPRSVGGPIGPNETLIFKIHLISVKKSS

T1 sequence (P62942 whole entry): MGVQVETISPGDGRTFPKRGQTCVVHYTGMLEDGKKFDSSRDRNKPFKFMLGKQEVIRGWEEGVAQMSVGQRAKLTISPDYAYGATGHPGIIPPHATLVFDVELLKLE

Row | Compound | Ki (FKBP12 [1]) [nM] | Ki (FKBP12.6 [2]) [nM] | Ki (FKBP51FK1) [nM] | Ki (FKBP52FK1) [nM] | Ki (FKBP12 [3]) [nM] | Ki (FKBP12.6 [4]) [nM] | Ki (FKBP51) [nM] | Ki (FKBP52) [nM] | Ki (LpMip) [nM]
1 | C=C[C@H]1CN(Cc2cn(CCOCC(=O)Nc3cccc4c3C(=O)N(C3CCC(=O)NC3=O)C4=O)nn2)C(=O)[C@@H]2CCC[C@H]1N2S(=O)(=O)c1cc(Cl)cc(Cl)c1 (some centres unmarked) [MTQ503] | 0.2 ± 0.03 | 0.46 ± 0.1 | 8 ± 1 | 1.9 ± 0.5 |  |  |  |  | 
2 | C=C[C@H]1CN(Cc2cn(CCOCCOCCOCC(=O)Nc3cccc4c3C(=O)N(C3CCC(=O)NC3=O)C4=O)nn2)C(=O)[C@@H]2CCC[C@H]1N2S(=O)(=O)c1cc(Cl)cc(Cl)c1 (some centres unmarked) [MTQ505] | 2.4 ± 0.2 | 21 ± 2 | 17 ± 4 | 16 ± 5 |  |  |  |  | 
3 | C=C[C@H]1CN([C@@H](C)c2cn(CCOCCOCCOCCOCCOCC(=O)Nc3cccc4c3C(=O)N(C3CCC(=O)NC3=O)C4=O)nn2)C(=O)[C@@H]2CCC[C@H]1N2S(=O)(=O)c1cc(Cl)cc(Cl)c1 (some centres unmarked) [MTQ517] | 0.4 ± 0.05 | 1.5 ± 0.3 | 2.1 ± 0.4 | 4.9 ± 1.1 |  |  |  |  | 
4 | C=C[C@H]1CN(Cc2cn(CCOCCOCC(=O)Nc3cccc4c3C(=O)N(C3CCC(=O)NC3=O)C4=O)nn2)C(=O)[C@@H]2CCC[C@H]1N2S(=O)(=O)c1cc(Cl)cc(Cl)c1 (some centres unmarked) [MTQ504] | 2.1 ± 0.2 | 17 ± 1.3 | 25 ± 6 | 43 ± 11 |  |  |  |  | 
5 | C=C[C@H]1CN([C@@H](C)c2cn(CCOCCOCCOCC(=O)Nc3cccc4c3C(=O)N(C3CCC(=O)NC3=O)C4=O)nn2)C(=O)[C@@H]2CCC[C@H]1N2S(=O)(=O)c1cc(Cl)cc(Cl)c1 (some centres unmarked) [MTQ515] | 0.5 ± 0.1 | 4.8 ± 0.5 | 3.2 ± 0.9 | 5 ± 1.2 |  |  |  |  | 
6 | C=C[C@H]1CN([C@@H](C)c2cn(CCOCC(=O)Nc3cccc4c3C(=O)N(C3CCC(=O)NC3=O)C4=O)nn2)C(=O)[C@@H]2CCC[C@H]1N2S(=O)(=O)c1cc(Cl)cc(Cl)c1 (some centres unmarked) [MTQ513] | 0.2 ± 0.02 | 0.41 ± 0.2 | 2.3 ± 0.4 | 0.7 ± 0.3 |  |  |  |  | 
7 | C=C[C@H]1CN(Cc2cn(CCOCCOCCOCCOCCOCC(=O)Nc3cccc4c3C(=O)N(C3CCC(=O)NC3=O)C4=O)nn2)C(=O)[C@@H]2CCC[C@H]1N2S(=O)(=O)c1cc(Cl)cc(Cl)c1 (some centres unmarked) [MTQ507] | 0.7 ± 0.1 | 10 ± 1.2 | 12 ± 2 | 60 ± 12 |  |  |  |  | 
8 | C=C[C@H]1CN(Cc2cn(CCOCCOCCOCCOCC(=O)Nc3cccc4c3C(=O)N(C3CCC(=O)NC3=O)C4=O)nn2)C(=O)[C@@H]2CCC[C@H]1N2S(=O)(=O)c1cc(Cl)cc(Cl)c1 (some centres unmarked) [MTQ506] | 1.5 ± 0.2 | 19 ± 2 | 28 ± 5 | 30 ± 8 |  |  |  |  | 
9 | C=C[C@H]1CN([C@@H](C)c2cn(CCOCCOCC(=O)Nc3cccc4c3C(=O)N(C3CCC(=O)NC3=O)C4=O)nn2)C(=O)[C@@H]2CCC[C@H]1N2S(=O)(=O)c1cc(Cl)cc(Cl)c1 (some centres unmarked) [MTQ514] | 0.4 ± 0.1 | 2.4 ± 0.4 | 4.4 ± 1.2 | 5.7 ± 1.7 |  |  |  |  | 
10 | C=C[C@H]1CN([C@@H](C)c2cn(CCOCCOCCOCCOCC(=O)Nc3cccc4c3C(=O)N(C3CCC(=O)NC3=O)C4=O)nn2)C(=O)[C@@H]2CCC[C@H]1N2S(=O)(=O)c1cc(Cl)cc(Cl)c1 (some centres unmarked) [MTQ516] | 0.5 ± 0.1 | 3.7 ± 0.5 | 4.2 ± 0.8 | 8.4 ± 2.3 |  |  |  |  | 
11 | COC[C@H]1CN([C@@H](C)c2ccccn2)C(=O)[C@@H]2CCC[C@H]1N2S(=O)(=O)c1cc(Cl)cc(Cl)c1 [24b, (1S,5S,6R)-10-((3,5-dichlorophenyl)sulfonyl)-5-(methoxymethyl)-3-((S)-1-(pyridin-2-yl)ethyl)-3,10-diazabicyclo[4.3.1]decan-2-one] |  |  |  |  | 0.04 | 0.41 | 0.83 | 0.35 | 36
12 | C=C[C@H]1CN([C@@H](C)c2ccccn2)C(=O)[C@@H]2CCC[C@H]1N2S(=O)(=O)c1cc(Cl)cc(Cl)c1 [6d, (1S,5S,6R)-10-((3,5-dichlorophenyl)sulfonyl)-3-((S)-1-(pyridin-2-yl)ethyl)-5-vinyl-3,10-diazabicyclo[4.3.1]decan-2-one] |  |  |  |  | 0.15 | 0.41 | 2.6 | 2.2 | 171
